Data reported in patent publication US11385234B2, “Methods and systems for detecting an analyte or classifying a sample” (Commonwealth Scientific and Industrial Research Organisation, priority 2012, dated 2022).
Each block holds one compound with its values, some of them ahead of it.

What was measured:
GFP^2—MBP—RLuc2 = GFP^2—MBP—RLuc2 (Escherichia coli, UniProt P0AEX9); test: BRET^2 tagged MBP sugar assay, plate reader; type: binding; settings: 0.1 mM maltose
Experimental: 1 μM purified protein was used for all the energy transfer assays (final volume of 100 μL). […] Purified protein was incubated with the sugar dissolved in double deionised water or water for 30 minutes at 28° C.
(§1) BRET ratios were calculated as the ratio of maximum acceptor emission intensity to maximum donor emission intensity.
All data analysis was carried out using GraphPad Prism (version 5 for Windows, Graphpad Software, San Diego, Calif., USA). All data will be reported as means± standard deviation (SD) unless otherwise stated in the text. Two-tailed unpaired t-tests will be performed using Graphpad prism. Statistical significance is defined as p<0.05.

[1] = target: T1, FLIPmal-2μ (FRET tagged MBP receptor) (Escherichia coli, UniProt P0AEX9); settings: cited from earlier work
T1 construct: fused on or other part: FRET pair fused to the N- and C-terminus of MBP; From Fehr et al. 2002 these are a cyan and a yellow GFP variant

GFP^2—MBP—RLuc2 W140A = test: BRET^2 tagged MBP W140A mutant, plate reader; type: binding; settings: 0.1 mM maltose
Experimental: The W140 mutation was introduced into pRSET GFP^2—MBP—RLuc2 using site-directed mutagenesis (Stratagene) using primers C1 ([…]) (SEQ ID NO:11) and C2 ([…]) (SEQ ID NO:12). Nucleotide and amino acid sequences for BRET^2 tagged MBP receptor provided a SEQ ID NOs: 3 to 6).
1 μM purified protein was used for all the energy transfer assays (final volume of 100 μL). 1 μM purified protein was prepared by diluting the protein in phosphate buffer solution (PBS, 0.058 M […], 0.017 NaH2PO4, 0.068 M NaCl (pH 7.4)). Purified protein was incubated with the sugar dissolved in double deionised water or water for 30 minutes at 28° C. Following incubation 16.67 μM coelenterazine 400a was added and the signal was recorded immediately.
as §1

[2] = test system: SGSR-113 (BRET^2 tagged str-113); test: BRET^2 response of SGSR-113 to volatile ligands, plate based; type: biochemical, C. elegans
Excerpt: (§2) SGSRs are chimaeras of C. elegans str-112, str-113, str-114, str-115, str-116 and str-114/113 with the BRET^2 tags GFP^2 and RLuc or RLuc2 inserted in the third intracellular loop and at the C-terminus, respectively. The positions of the third intracellular loops of STR proteins were predicted using “TMAP” an algorithm from “The Biology Workbench” (a web-based tool for prediction of transmembrane segments http.//seqtool.sdsc.edu). These were named SGSR-112, SGSR-113, SGSR-114/113, SGSR-114, SGSR-115 and SGSR-116.
(§3) Except for SGSR-112, which was commercially synthesised, SGSR expression cassettes were designed and made by introducing multiple restriction sites into the relevant gene-specific PCR primers. PCR products containing those sites were cloned into TOPO PCR vectors (Invitrogen) and then digested with the corresponding restriction enzymes (REs) and ligated into the expression cassettes.
(§4) The inventors selected a number of specific volatiles (including 1-hexanol, 1 butanol, butane-2,3-dione, 3-hydroxybutanone, 2-pentanone and 2 nonanone) for further testing based on GC-MS analysis of the headspace of OP50 bacteria grown on LB. […] This is the first time that a volatile ligand (or indeed any ligand) has been identified for a BRET-based GPCR sensor, in the absence of prior knowledge of the ligand based on research with the unmodified parental GPCR.

[3] = test system: SGSR-114/113 (BRET^2 tagged str-114/113 chimera); test: BRET^2 response of SGSR-114/113 to volatile ligands, plate based; type: biochemical, C. elegans; settings: for detectable level: in vitro
Excerpt: as §2, §3
The SGSR 114/113 chimera was constructed by modifying C. elegans SGSR-113 (by replacing the first fragment of str-13, 113-1 using the restriction sites NcoI and BspEI in the cassette with the corresponding fragment of str-114, str-114-1). Str114-1 contains the first 720 str-114 nucleotides of, corresponding to its first 240 amino acids and was amplified by high fidelity PCR using primers incorporating the restriction sites, NcoI at the 5′ end and BspEI at the 3′ end.
as §4

[4] = target: SGSR-112 (BRET^2 tagged str-112) (Caenorhabditis elegans, UniProt O16913); test: BRET^2 response of SGSR-112 to volatile ligands, plate based; type: biochemical, C. elegans
Chain of SGSR-112 (BRET^2 tagged str-112) (O16913 entry or part of it): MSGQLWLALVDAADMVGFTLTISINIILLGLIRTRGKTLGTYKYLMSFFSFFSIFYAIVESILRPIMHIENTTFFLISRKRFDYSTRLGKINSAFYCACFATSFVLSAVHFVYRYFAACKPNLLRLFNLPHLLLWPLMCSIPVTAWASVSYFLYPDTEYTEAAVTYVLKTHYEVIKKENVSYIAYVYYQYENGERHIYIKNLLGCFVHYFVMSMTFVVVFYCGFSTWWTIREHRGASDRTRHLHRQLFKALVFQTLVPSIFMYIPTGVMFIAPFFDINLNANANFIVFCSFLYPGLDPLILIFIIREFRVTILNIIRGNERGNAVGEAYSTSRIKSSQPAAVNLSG
Excerpt: as §2, §3, §4

OGOR = test: Diacetyl assay with original OGOR sensor (native RLuc), microwell; type: biochemical, C. elegans; settings: original OGOR sensor incorporating native RLuc
Excerpt: (§5) Chimaeric BRET^2 tagged odorant receptors have the BRET^2 components inserted into the third intracellular loop (IC3) and at the C-terminus of the C. elegans odorant receptor with green fluorescent protein, GFP^2 at IC3 and Renilla luciferase, RLuc at the C-terminus of the protein (OGOR). Using site-directed mutagenesis the RLuc2 mutations were introduced into the pYES-DEST-52 OGOR sequence. Primers 1 and 2 (Table 3) were used to introduce the mutation C124A and primer pair 3 and 4 was used to introduce the M185 V mutation to make the construct named OGOR2 (FIG. 18, SEQ ID NO:1, SEQ ID NO-2).
(§6) All ligand solutions were prepared directly in water. The OGOR concentration was normalized using GFP^2 intensity at 510 nm. Assays were carried out in 96-well plates (Perkin-Elmer) in a total volume of 100 μL in phosphate buffered saline. OGOR was incubated with each ligand for 45 minutes at 28° C. in wells sealed with Topseal-A™ (Packard).
Following the incubation, Coelenterazine 400a substrate (Biosynth) was added to a final concentration of 5 μM.
BRET^2 signals were calculated as the ratio of emission intensity at 515 nm to that at 410 nm. All data are reported as the mean±standard deviation (SD) or mean±standard error of the mean (SEM) as described in the text. […]

OGOR2 [5] = test: Real-time on-chip microfluidic diacetyl assay with OGOR2; type: biochemical, C. elegans; settings: 1 fM diacetyl, 290 nM protein, 12.5 μM substrate, flow rates 50, 100, 200 and 300 μl/hr
Experimental: On-chip real-time measurements were carried out in a three-inlet microfluidic mixer device integrated with an optical detection chamber. […] The second inlet contained diacetyl (2,3-butanedione) diluted to give a final concentration of 1 fM in PBS, or PBS only as a control. The third inlet was used to introduce sensor protein suspension, which was prepared by resuspending the membrane pellet describe above in 1 mL of PBS and further diluting as required. The on-chip mixing was initiated by using input flow rates ranging from 50-400 μl/hr.
(§7) BRET^2 signals were calculated as the ratio of emission intensity at 515 nm to that at 410 nm. All data are reported as the mean±standard deviation (SD) or mean±standard error of the mean (SEM) as described in the text. Curves were fitted with log [agonist] vs response curves with variable slopes following normalization of data, using Graphpad Prism version 5.03 for Windows. Two-tailed unpaired t-tests were carried out in Graphpad prism. Statistical significance was defined as p<0.05.

OGOR2 [6] = test: Endpoint on-chip microfluidic diacetyl assay with OGOR2; type: biochemical, C. elegans
Experimental: Endpoint microfluidic assays were carried out on-chip in two inlet microfluidic mixer devices integrated with an optical detection chamber. […] OGOR and OGOR2 membrane pellets were resuspended in 1 mL of PBS, diluted as required and incubated at 28° C. for 45 minutes with diacetyl solution at concentrations ranging from 1 aM-1 μM. The preparation was introduced in the second inlet. On-chip mixing was initiated with an input flow rate of 400 μl/hr for each inlet.
as §7

OGOR2 [7] = test: Diacetyl detection with highly diluted OGOR2, wide bore chamber and liquid light guide; type: biochemical, C. elegans; settings: 1 μM diacetyl
Experimental: On-chip measurements were carried out with a microfluidic chip similar to that shown in FIG. 31A with two inlets, a passive mixing element and a detection chamber. An aluminium mirror was placed on top of the reaction chamber to enhance the BRET signal.
A number of variations were compared with the original set up (FIG. 31A). The diameter of the reaction chamber was increased to 4 mm (FIG. 34A) from an original diameter of 2 mm. The height of the reaction chamber was varied between 1 and 2 mm. A single optical fiber of diameter 0.4-1.0 mm (FIG. 31A) was replaced with a liquid light guide or fibre-optic bundle of 5 mm core diameter NA=0.59, feeding into a dichroic block (FIG. 34A), or a bifurcated light guide of trunk core diameter 6 mm branch core diameter of 4 mm (FIG. 37) or a multifurcated light guide of trunk core diameter 8 mm and branch core diameter 4 mm (FIGS. 38 and 40).
OGOR2 sensor solution was prepared at day 4 in PBS at high (100 and 50 times) dilution ratios from stock solution. Clz400a was prepared in PBS at 31.25 μM. When diacetyl was included, it was added to the OGOR2 sensor solution at a final concentration of 1 μM. For the control experiment, only DI water was added. The sensor tubes without and with diacetyl were both incubated at 28° C. in 30 min.

[8] = test system: OGOR2 (ODR-10 receptor fused to RLuc2 and GFP^2); test: Diacetyl assay with OGOR2, 96-well plate BRET^2; type: biochemical, C. elegans
Excerpt: as §5
Yeast colonies were inoculated in 10 mL SCMM-U (S. cerevisiae minimal media, composition per 200 mL: 1.34 g […] without amino acids and 0.38 g yeast supplementation media without uracil) supplemented with 2% glucose and incubated overnight at 28° C. An aliquot of the overnight culture was used to inoculate SCMM-U supplemented with 2% raffinose and 2% galactose to a final O.D..600 of 0.4 and incubated for an additional 72 h at 15° C. with shaking at 200 rpm.
Cell cultures were centrifuged at 1500×g for 5 minutes at 4° C. Cells were resuspended in 1 mL of sterile water and centrifuged for 1 minute at 10,000×g. Cells were resuspended in 4 mL phosphate buffer solution (PBS). The cells were lysed by French press (˜18000 psi) and cellular debris was removed by centrifugation at 15000×g (4° C.) for 15 minutes. Following this the supernatant fraction was centrifuged at 40,000 rpm (Beckman Coulter L-80 ultra-centrifuge) for 1 hour at 4° C. The supernatant was decanted and the membrane pellet was resuspended in 1 mL of PBS and stored at 4° C. for 48 hrs.
as §6, with “(Packard). […]” for “(Packard).”
BRET^2 signals were calculated as the ratio of emission intensity at 515 nm to that at 410 nm. […]

Compound: OC[C@H]1O[C@H](O[C@H]2[C@H](O)[C@@H](O)C(O)O[C@@H]2CO)[C@H](O)[C@@H](O)[C@@H]1O (mixture of isomers) [maltose]
- incubation time at which BRET^2 response reached a maximum (GFP^2—MBP—RLuc2): 30 min
- signal change, FRET ([1]; Fehr et al., 2002): ~12%
- linear range of FRET response ([1]; two log units): 0.26 to 21.12 µM
- BRET^2 response to maltose (GFP^2—MBP—RLuc2 W140A): abolished

Compound: CCCCCCO [1-hexanol]
- detectable level ([2]; in vitro): parts per billion (nM) levels

Compound: CCCC(C)=O [2-pentanone]
- BRET^2 response to volatile ligand ([3]; 1 μM of odorant): tested positive
- detectable level [3]: parts per billion levels (nM) levels
- EC50 [4]: 0.15 nM
- BRET^2 response to volatile ligand ([4]; 1 μM of odorant): tested positive
- BRET^2 response to volatile ligand ([2]; 1 μM of odorant): tested positive

- EC50 (OGOR2 [6]; on-chip microfluidic endpoint): ~10 aM
- decrease in BRET^2 signal ([8]; 1 μM diacetyl, microplate wells): 21.4%
- EC50 ([8]; microwell plate): 11.4 aM
- linear range of dose-dependent response ([8]; microwell plate, six log units): 10^−18 to 10^−12 M
Compound: CC(=O)C(C)=O [diacetyl, 2,3-butanedione]
- detectable level [3]: parts per quadrillion (sub pM) levels
- percentage change in BRET^2 signal in response to diacetyl (OGOR): 32%
- decrease in BRET^2 ratio (OGOR2 [5]): 27.4%
- decrease in BRET^2 signal (OGOR2 [6]; 10 fM diacetyl, microfluidic endpoint): 36.9%
- Diacetyl-dependent reduction in BRET^2 ratio (OGOR2 [7]; 50 times sensor dilution): 14.7%
- Diacetyl-dependent reduction in BRET^2 ratio (OGOR2 [7]; 100 times sensor dilution): 13.7%
